Usually EC50 stands for the concentration giving half of the maximal effect. By inhibition is commonly meant the percentage by which the read-out fell short of the control. As usually defined, the melting point is the temperature of the solid-liquid transition.

Molecules are shown by their SMILES. Where two headings read alike, the source gives them in different places.

Data set [1] deals with SARS-CoV-2. Kind of data set: microbe, parasite or virus in culture. In kind it is cell-based.
A short description of data set [2]: in vitro. The settings on record: African green monkey.
Data set [3] in a line: in vitro. The settings on record: human.
Data set [4] relates to SARS-CoV-2. Kind of data set: SARS-CoV-2 replication inhibition in Vero E6 cells (PFU titration). The settings on record: for EC50: read-out: EC50 24 h, Vero E6, MOI 0.01, 24 hpi; for inhibition of SARS-CoV-2 replication: Vero E6, 24 hpi, 10 µM.
Data set [5] is described as follows: Cytotoxicity assay, methylene blue staining, Calu-3. The settings on record: human.
For data set [6], the system named is SARS-CoV-2. The settings on record: cell model not given; read-out: estimated EC50; cited from earlier work.
For data set [7], the system named is SARS-CoV-2. Further details: method as in PMID 33880524. To be noted: Calu-3-based assays, 48 hpi; cited from earlier work.
In data set [8] the test system is SARS-CoV-2. More on the design: method as in PMID 32759267. To be noted: infected Vero E6 cells; cited from earlier work.
Where [9] appears, read: Severe acute respiratory syndrome coronavirus 2, Calu-3, 24 h, read-out: EC50 24 h, Calu-3, MOI 0.01, 24 hpi.
[10] abbreviates: Severe acute respiratory syndrome coronavirus 2, Calu-3, 48 h, read-out: EC50 48 h, Calu-3, MOI 0.01, 48 hpi.
Where [11] appears, read: read-out: EC50 48 h, Calu-3, MOI 0.01, 48 hpi.
Setting [12] is: Severe acute respiratory syndrome coronavirus 2, 24 h, Calu-3, MOI 0.01, 24 hpi, read-out: EC50 24 h.
The mark [13] stands for this setting: Severe acute respiratory syndrome coronavirus 2, 48 h, Calu-3, MOI 0.01, 48 hpi, read-out: EC50 48 h.
Setting [14] is: Severe acute respiratory syndrome coronavirus 2, Calu-3, read-out: inhibition of coronavirus replication.
[15] abbreviates: read-out: EC50 24 h, Calu-3, MOI 0.01, 24 hpi.

As for `COc1ccc([Te]C[C@H]2O[C@@H](n3cc(C)c(=O)[nH]c3=O)C[C@@H]2N)cc1` [R3o], the EC50 in [1] (setting [9]) is 6180 ± 2050 nM; in [1] (setting [10]), at most 2570 nM; in data set [1] (setting [11]) it was 1990 ± 1730 nM; in [4], 4.95 ± 0.64 µM. The CC50 in data set [2] stood at 39.9 ± 4.4 µM; in data set [3] it was 30.7 ± 5.6 µM.
For the molecule `Cc1cn([C@H]2C[C@H](N)[C@@H](C[Se]c3ccccc3)O2)c(=O)[nH]c1=O` [R3a], the concentration for a half-maximal effect (EC50) in data set [1] (setting [9]) came to 6370 ± 580 nM; in data set [1] (setting [10]) it was 3670 ± 1570 nM; in [4] it was 2.25 ± 0.43 µM. The CC50 in data set [2] and in [3] was over 200 µM each time.
Regarding `Cc1cn([C@H]2C[C@H](N=[N+]=[N-])[C@@H](CO)O2)c(=O)[nH]c1=O` [AZT, azidothymidine, reference compound], the EC50 in [1] (setting [12]) and in data set [1] (setting [13]) was over 10000 nM in each case. Further, the CC50 at 72 h in data set [5] was over 200 µM.
For the molecule `Cc1cn([C@H]2C[C@H](N)[C@@H](C[Te]c3ccccc3)O2)c(=O)[nH]c1=O` [R3f], the results for the EC50 in [1] (setting [9]), in data set [1] (setting [10]) and in data set [4] were at most 2000 nM, 4860 ± 1310 nM and 2.67 ± 0.63 µM, respectively. The inhibition at 10 µM in [1] (setting [14]) is over 95%. The CC50 in data set [2] was 52.1 ± 12.7 µM; in [3], 44.6 ± 8.3 µM. The “inhibition of SARS-CoV-2 replication” value in [4] is recorded as “approximately 95%”.
Turning to `CC(C)C(=O)OC[C@H]1O[C@@H](n2ccc(NO)nc2=O)[C@H](O)[C@@H]1O` [molnupiravir], the EC50 in data set [6] was 1970 nM.
Consider `Cc1ccc([Te]C[C@H]2O[C@@H](n3cc(C)c(=O)[nH]c3=O)C[C@@H]2N)cc1` [R3n], for which the EC50 in [1] (setting [9]) was at most 2000 nM; in [1] (setting [10]) it was at most 2570 nM; in data set [1] (setting [15]), 1180 ± 610 nM; in [1] (setting [11]), 2570 ± 620 nM; in data set [4], 6.1 ± 0.41 µM. The inhibition at 10 µM in data set [1] (setting [14]) is over 95%. Further, the values for the CC50 in [2] and in data set [3] were 60.1 ± 4.4 µM and 68.7 ± 11.4 µM, respectively.
In the case of `Cc1cn([C@H]2C[C@H](N)[C@@H](C[Te]c3ccc(Cl)cc3)O2)c(=O)[nH]c1=O` [R3p], the 50% effective concentration (EC50) in [1] (setting [9]) amounted to 4330 ± 1030 nM; in data set [1] (setting [10]) it was 12700 ± 1740 nM; in [4], 4.89 ± 0.52 µM. In addition, the CC50 came out at 49.7 ± 7.5 µM in data set [2] and 35.2 ± 7.5 µM in data set [3]. Also, in data set [4], the “inhibition of SARS-CoV-2 replication” value was “approximately 95%”.
As to `Cc1cn([C@H]2C[C@H](N)[C@@H](C[Te]c3cccc4ccccc34)O2)c(=O)[nH]c1=O` [R3q], the melting point lay within 134.1 to 135.6 °C. Besides, the concentration giving a half-maximal response (EC50) in data set [1] (setting [9]) is at most 2000 nM. Moreover, in data set [1] (setting [14]), the inhibition at 10 µM was over 95%. The EC50 in data set [1] (setting [15]) came out at 2030 ± 320 nM. Further, the CC50 in [2] worked out at 33.6 ± 6.9 µM. The molecule also showed a CC50 in data set [3] of 34.3 ± 10.2 µM. In addition, the EC50 in data set [4] amounted to 4.21 ± 0.43 µM.
As for `Cc1ccc([Se]C[C@H]2O[C@@H](n3cc(C)c(=O)[nH]c3=O)C[C@@H]2N)cc1` [R3b], the EC50 was 3820 ± 1420 nM in [1] (setting [9]), 1330 ± 350 nM in data set [1] (setting [10]) and 2.97 ± 0.62 µM in [4]. Moreover, the inhibition at 10 µM in data set [1] (Severe acute respiratory syndrome coronavirus 2, Calu-3, read-out: inhibition of viral replication) turned out to be 95%. The CC50 in data set [2] and in data set [3] was over 200 µM each time.
Regarding `Cc1cn([C@H]2C[C@H](N)[C@@H](C[Se]c3ccc(Cl)cc3)O2)c(=O)[nH]c1=O` [R3d], the EC50 in data set [1] (setting [9]) is 8290 ± 820 nM; in data set [1] (setting [10]), at most 2570 nM; in [1] (setting [11]), 2170 ± 640 nM; in data set [4], 1.23 ± 0.54 µM. The values for the CC50 in data set [2] and in data set [3] were 98.8 ± 11.7 µM and over 200 µM, respectively.
In the case of `Cc1cn([C@H]2C[C@H](N)[C@@H](C[Se]c3cccc4ccccc34)O2)c(=O)[nH]c1=O` [R3e], the EC50 was at most 2000 nM in data set [1] (setting [9]); at most 2570 nM in data set [1] (setting [10]); 1920 ± 430 nM in [1] (setting [15]); 2310 ± 540 nM in data set [1] (setting [11]); 1.99 ± 0.42 µM in data set [4]. For the same molecule, the inhibition at 10 µM in data set [1] (setting [14]) was over 95%. The CC50 is over 200 µM in data set [2] and 156 ± 5 µM in data set [3]. Moreover, in [4], the “inhibition of SARS-CoV-2 replication” value is reported as “approximately 95%”.
As to `COc1ccc([Se]C[C@H]2O[C@@H](n3cc(C)c(=O)[nH]c3=O)C[C@@H]2N)cc1` [R3c], the EC50 in data set [1] (setting [9]) amounted to 5170 ± 810 nM; in [1] (setting [10]), 3430 ± 1520 nM; in data set [4], 3.31 ± 0.92 µM. Further, the CC50 in data set [2] and in [3] was over 200 µM each time.
Consider `Cc1cn([C@H]2C[C@H](N)[C@@H](CSc3ccccc3)O2)c(=O)[nH]c1=O` [R3r], for which the EC50 in [1] (setting [12]) and in data set [1] (setting [13]) was over 10000 nM each time. Besides, the CC50 at 72 h in [3] is over 200 µM.
Regarding `COC(=O)N[C@H](C(=O)N1CCC[C@H]1c1nc(-c2ccc(-c3ccc(-c4c[nH]c([C@@H]5CCCN5C(=O)[C@@H](NC(=O)OC)C(C)C)n4)cc3)cc2)c[nH]1)C(C)C` [daclatasvir], the EC50 in data set [7] is 1100 ± 300 nM.
Consider `COC(=O)N[C@H](C(=O)N[C@@H](Cc1ccccc1)[C@@H](O)CN(Cc1ccc(-c2ccccn2)cc1)NC(=O)[C@@H](NC(=O)OC)C(C)(C)C)C(C)(C)C` [atazanavir], for which the EC50 in data set [8] was 2000 ± 120 nM.
